In patent US20070059382A1 (Board of Regents, Univ. and Comm. College System of …, priority 2005, published 2007):
“And” between values parts separate entries of the source, which are not always exact repeats. Identical values can stand only once. “Also recorded” adds a separate entry of the source. Like-named read-outs stand apart in the source and are kept apart here.

Assays:
DU-145 = details: cited from earlier work
[1] = humans, chronic (about 1 g of boric acid); cited from earlier work
PC-3 = details: cited from earlier work
ZR-75-1 [2] = system: ZR-75-1
[3] = system: non-tumorigenic prostate cell lines; details: cited from earlier work
DU-145 cells = details: cited from earlier work
[4] = system: cyclins A-E and MAPK proteins; details: cited from earlier work
HeLa cells = assay: Growth of HeLa cells (express the NaBC1 transporter); type: cell-based; details: 1 mM
ZR-75-1 [5] = assay: Cell attachment (reattachment after trypsin harvest)
[6] = in vivo; cited from earlier work
MCF-7 [7] = details: 1 mM
MCF-7 [8] = assay: Cell attachment (reattachment after trypsin harvest)
ZR-75-1 [9] = assay: Detachment of growing cells (attached and floating cells); type: cell-based, human; details: seven days, 0.5 to 10 mM boric acid
From the text: We quantified the attached and floating cells. The data is shown below in FIG. 7.

LNCaP = details: cited from earlier work
LNCaP tumor = details: nude mice, 1.7 and 9.0 mgB/Kg/day; cited from earlier work
[10] = in vivo; cited from earlier work; remark: listed apart in the source
[11] = treated three days, then boric acid removed

OB(O)O [boric acid]
growth inhibition (DU-145): inhibits the growth | growth inhibition (DU-145; listed as BA): sensitive | chronic intake with no adverse effects [1]: 2.5 mg/kg/day | growth inhibition (PC-3): inhibits the growth | growth inhibition (PC-3; listed as BA): much less sensitive | growth inhibition (ZR-75-1 [2]; 1 mM): sensitive; also recorded: growth inhibition; also recorded: very sensitive | time to resume normal growth rate after boric acid removal (ZR-75-1 [2]; [11]): about three | growth inhibition [3]: not | adhesion, migration and invasion potential (DU-145 cells): reduced | change in cyclins A-E and MAPK proteins [4]: dose-dependent reduction | growth inhibition (HeLa cells): very little inhibition | growth inhibition (SK-BR-3; 1 mM): growth inhibition | time to resume normal growth rate after boric acid removal (SK-BR-3; [11]): about three | effect on cell attachment (ZR-75-1 [5]; ZR-75-1, 1 mM (Experiments 1, 2)): inhibit the attachment; also recorded: inhibited their reattachment | effect on cell attachment (ZR-75-1 [5]; ZR-75-1, 1 mM (Experiments 1, 2), listed as BA): did not | percentage of cells that had reattached (ZR-75-1 [5]; ZR-75-1, 30 min, 1 mM each compound): 24.5 ± 5.2% | percentage of cells that had reattached (ZR-75-1 [5]; ZR-75-1, 60 min, 1 mM each compound): 74.1 ± 26.1% | percentage of cells that had reattached (ZR-75-1 [5]; ZR-75-1, 90 min, 1 mM each compound): 98.2 ± 34.0% | percentage of cells that had reattached (ZR-75-1 [5]; ZR-75-1, 120 min, 1 mM each compound): 104.0 ± 16.1% | fraction excreted in the urine [6]: about 85% | half-life [6]: about 21 hrs | time to excretion in the urine after ingestion [6]: ≤ 24 h | growth inhibition (MCF-7 [7]): not growth inhibited; also recorded: no growth inhibition; also recorded: much less sensitive | effect on cell attachment (MCF-7 [8]; MCF-7, 1 mM (Experiments 3, 4)): did not | percentage of cells that had reattached (MCF-7 [8]; MCF-7, 30 min, 1 mM each compound): 53.5 ± 3.0% | percentage of cells that had reattached (MCF-7 [8]; MCF-7, 60 min, 1 mM each compound): 92.6 ± 9.1% | percentage of cells that had reattached (MCF-7 [8]; MCF-7, 90 min, 1 mM each compound): 105.7 ± 6.8% | percentage of cells that had reattached (MCF-7 [8]; MCF-7, 120 min, 1 mM each compound): 97.5 ± 4.1% | cell detachment / floating cells (ZR-75-1 [9]): causing breast cancer cells to detach and undergo apoptosis; also recorded: cells were seen floating in the media | growth inhibition (LNCaP): inhibits the growth | growth inhibition (LNCaP; listed as BA): much less sensitive | inhibition of LNCaP tumor growth (LNCaP tumor): about 30%

[Cl][Mn][Cl] [MnCl2, reference compound]
effect on cell attachment (ZR-75-1 [5]): stimulates attachment | percentage of cells that had reattached (ZR-75-1 [5]): 42.6 ± 12.0% and 67.3 ± 12.0% and 70.2 ± 1.4% and 77.8 ± 13.6% | effect on cell attachment (MCF-7 [8]): stimulates attachment | percentage of cells that had reattached (MCF-7 [8]): 53.9 ± 12.3% and 69.4 ± 2.9% and 74.9 ± 3.6% and 81.5 ± 9.9%

[B] [boron]
Tolerable Upper Intake Level (UL) [10]: 20 mg/day
